Assays:
TRPV3 = target: T1, TRPV3 (Mus musculus, UniProt Q8K424); test: Whole-cell patch clamp in CHO cells transfected with mouse Trpv3 cDNA; type: cell-based; conditions: miR-711 10 μM; carvacrol 300 μM
T1 construct: expressed in transfected cells; host or cells: CHO cells (ATCC CRL-9096), plasmid pcDNA3.1-mTrpv3, a gift from Korea University
T1 sequence (Q8K424 1-791): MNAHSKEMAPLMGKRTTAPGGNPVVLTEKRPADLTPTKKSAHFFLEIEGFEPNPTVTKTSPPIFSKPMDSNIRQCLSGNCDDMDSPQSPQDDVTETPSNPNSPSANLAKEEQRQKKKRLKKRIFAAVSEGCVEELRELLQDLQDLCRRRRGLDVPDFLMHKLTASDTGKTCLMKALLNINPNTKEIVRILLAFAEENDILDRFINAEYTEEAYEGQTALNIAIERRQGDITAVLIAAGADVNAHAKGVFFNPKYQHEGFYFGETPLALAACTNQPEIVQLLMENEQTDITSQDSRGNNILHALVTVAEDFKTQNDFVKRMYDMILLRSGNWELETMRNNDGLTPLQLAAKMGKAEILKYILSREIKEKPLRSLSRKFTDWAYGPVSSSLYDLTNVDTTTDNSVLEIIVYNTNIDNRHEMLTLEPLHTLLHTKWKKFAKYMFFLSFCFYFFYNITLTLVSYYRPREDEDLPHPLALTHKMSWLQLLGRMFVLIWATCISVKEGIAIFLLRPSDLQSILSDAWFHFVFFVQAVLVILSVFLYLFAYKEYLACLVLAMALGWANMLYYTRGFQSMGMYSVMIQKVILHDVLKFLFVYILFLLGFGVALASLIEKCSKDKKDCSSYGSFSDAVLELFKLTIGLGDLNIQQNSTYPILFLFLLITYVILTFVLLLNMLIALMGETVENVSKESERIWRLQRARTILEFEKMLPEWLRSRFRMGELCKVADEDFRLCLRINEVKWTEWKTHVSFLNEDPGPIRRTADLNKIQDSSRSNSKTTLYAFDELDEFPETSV
Method: Constructs. The cDNAs of mouse pcDNA3.1-Trpa1, pcDNA3.1-Trpv1, pcDNA3.1-Trpv2, pcDNA3.1-Trpv3, and pcDNA3.1-Trpv4 were kindly provided Dr. Sun Work Hwang from Korea University. Mouse Trpa1 cDNA was subcloned into pCGN-HA backbone (Addgene) using In-Fusion HD Cloning Kit (Clontech Laboratories, CA). Q5 Site-Directed Mutagenesis Kit was used to generate mTrpa1 mutant (M1-M13) based on pCGN-mTrpa1.
Cell Culture and Transfection. CD4^+ Myla cell line was cultured in RPMI 1640 media (GIBCO), supplemented with 2 mM Glutamine (GIBCO), 100 U/mL IL-2 (Sigma), 100 U/mL IL-4 (Sigma), and 10% human AB serum (Sigma). HuT 102 cell line was cultured in RPMI 1640 supplemented with pyruvate, HEPES, and 10% (v/v) fetal bovine serum (HyClone). HEK293-hTRPA1 stable cell line was cultured in MEM (GIBCO) containing 2 mM Glutamine, 4 μg/mL Blasticidin, 10% FBS (v/v). B16 and CHO cells were cultured in high glucose (4.5 g/L) Dulbecco's Modified Eagle's Medium (GIBCO) containing 10% (v/v) fetal bovine serum (GIBCO). Culture media were supplemented with 50 units/mL of penicillin and 50 μg/mL streptomycin, and cultures were maintained with 5% CO2 in 37° C. incubator. Transfection (2 μg cDNA) was performed with Lipofectamine™ 2000 Reagent (Invitrogen) at 80% confluency and the transfected cells were cultured in the same media for 48 hr before electrophysiological and biochemical studies. […]

mTRPA1 = target: T2, mTRPA1 (Mus musculus, UniProt Q8BLA8); test: Live cell labeling with Cy3-labeled oligos in cultured DRG neurons; type: binding; conditions: 10 μM Cy3-labeled oligo, 15 min
T2 construct: endogenous in cells; host or cells: dissociated mouse DRG neurons in primary culture
Method: Live Cell Labeling and Immunocytochemistry in Mouse DRG Neurons. Disassociated DRG neurons were plated on Poly-D-Lysine coated coverslips and cultured in Neurobasal medium supplemented with B27 for 24 hr. Cells were incubated with 10 μM Cy3-labeled miR-711 or miR-711 (m6) in extracellular cell solution for 15 min at 37° C. with 5% CO2. Then the coverslips were washed and incubated with TRPA1 primary antibody (Alomone lab, rabbit, 1:100) at 4° C. for 1 hr. The cells on coverslips were incubated with secondary antibody conjugated to FITC (1:100; Jackson ImmunoResearch, West Grove, Pa.) and examined under a Leica SP5 inverted confocal microscope.

T2 sequence (Q8BLA8 whole entry): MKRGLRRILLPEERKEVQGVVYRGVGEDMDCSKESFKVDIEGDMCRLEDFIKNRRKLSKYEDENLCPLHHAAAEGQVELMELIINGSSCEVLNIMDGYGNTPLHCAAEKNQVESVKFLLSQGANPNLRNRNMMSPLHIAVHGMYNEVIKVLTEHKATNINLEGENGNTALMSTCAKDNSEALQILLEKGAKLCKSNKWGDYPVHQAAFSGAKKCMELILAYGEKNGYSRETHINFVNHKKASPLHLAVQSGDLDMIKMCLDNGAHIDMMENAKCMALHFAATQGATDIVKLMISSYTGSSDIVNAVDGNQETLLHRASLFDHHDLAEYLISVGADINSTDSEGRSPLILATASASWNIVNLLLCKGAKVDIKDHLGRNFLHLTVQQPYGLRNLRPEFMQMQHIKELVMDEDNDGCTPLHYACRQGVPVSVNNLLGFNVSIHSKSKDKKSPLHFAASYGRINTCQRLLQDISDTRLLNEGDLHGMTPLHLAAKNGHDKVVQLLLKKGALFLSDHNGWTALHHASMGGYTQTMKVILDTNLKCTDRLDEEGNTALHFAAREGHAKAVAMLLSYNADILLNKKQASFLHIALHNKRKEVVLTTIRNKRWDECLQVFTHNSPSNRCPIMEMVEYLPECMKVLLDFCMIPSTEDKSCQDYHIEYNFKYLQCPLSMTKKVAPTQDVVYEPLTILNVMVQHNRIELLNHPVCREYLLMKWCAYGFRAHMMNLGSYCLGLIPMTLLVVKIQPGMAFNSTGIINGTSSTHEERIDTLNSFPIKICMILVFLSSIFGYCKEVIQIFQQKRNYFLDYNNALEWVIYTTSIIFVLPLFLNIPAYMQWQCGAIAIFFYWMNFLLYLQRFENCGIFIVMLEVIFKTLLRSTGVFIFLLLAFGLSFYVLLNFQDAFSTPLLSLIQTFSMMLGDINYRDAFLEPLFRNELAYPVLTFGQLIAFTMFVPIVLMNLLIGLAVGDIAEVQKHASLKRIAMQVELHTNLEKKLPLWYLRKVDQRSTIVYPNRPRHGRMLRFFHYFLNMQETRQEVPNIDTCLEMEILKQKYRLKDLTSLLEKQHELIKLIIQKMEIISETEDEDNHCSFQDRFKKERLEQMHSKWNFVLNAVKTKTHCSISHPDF

How did the inward currents (TRPV3) turn out when `Cc1ccc(C(C)C)cc1O` [carvacrol] was run?
The inward currents was “inward currents induced”.

For “Cy3-labeled miR-711: mmu-miR-711-cy3: gggacccggggagagauguaag-cy3 (SEQ ID NO: 20) (GGGACCCGGGGAGAGAUGUAAG; Cy3 label at 3' end, RNA chemistry otherwise not given here, further chemistry not given here)”, which “binding to TRPA1 on the cell surface of DRG neurons” value (mTRPA1) is on record?
Its value is “binds to TRPA1 on the cell surface”.

Reference: patent US20210283163A1, “COMPOSITIONS AND METHODS FOR THE TREATMENT OF ACUTE AND CHRONIC PRURITIS” (Duke University, priority 2018, published 2021)
